# Experimental data reported in US20260092071A1, “COMPOUNDS AND COMPOSITIONS AS SMARCA2/4 DEGRADERS AND USES THEREOF” (REGENTS OF THE UNIVERSITY OF MICHIGAN, priority 2022, published 2026).
# Tests used:
# SMARCA4 = SMARCA4 (Homo sapiens, UniProt P51532); test: HiBit assay in engineered HT1080 CRISPR knock-in cell, 6 hrs (B series), SMARCA4; assay type: cell-based; settings: 6 hrs incubation; for DC50: HT1080 CRISPR knock-in cells, read-out: SMARC A4 HT1080 HiBit DC50; for Dmax: HT-1080, HT1080 CRISPR knock-in cells, read-out: SMARC A4 HT1080 HiBit Dmax(%)
# Chain of SMARCA4 (P51532 whole entry): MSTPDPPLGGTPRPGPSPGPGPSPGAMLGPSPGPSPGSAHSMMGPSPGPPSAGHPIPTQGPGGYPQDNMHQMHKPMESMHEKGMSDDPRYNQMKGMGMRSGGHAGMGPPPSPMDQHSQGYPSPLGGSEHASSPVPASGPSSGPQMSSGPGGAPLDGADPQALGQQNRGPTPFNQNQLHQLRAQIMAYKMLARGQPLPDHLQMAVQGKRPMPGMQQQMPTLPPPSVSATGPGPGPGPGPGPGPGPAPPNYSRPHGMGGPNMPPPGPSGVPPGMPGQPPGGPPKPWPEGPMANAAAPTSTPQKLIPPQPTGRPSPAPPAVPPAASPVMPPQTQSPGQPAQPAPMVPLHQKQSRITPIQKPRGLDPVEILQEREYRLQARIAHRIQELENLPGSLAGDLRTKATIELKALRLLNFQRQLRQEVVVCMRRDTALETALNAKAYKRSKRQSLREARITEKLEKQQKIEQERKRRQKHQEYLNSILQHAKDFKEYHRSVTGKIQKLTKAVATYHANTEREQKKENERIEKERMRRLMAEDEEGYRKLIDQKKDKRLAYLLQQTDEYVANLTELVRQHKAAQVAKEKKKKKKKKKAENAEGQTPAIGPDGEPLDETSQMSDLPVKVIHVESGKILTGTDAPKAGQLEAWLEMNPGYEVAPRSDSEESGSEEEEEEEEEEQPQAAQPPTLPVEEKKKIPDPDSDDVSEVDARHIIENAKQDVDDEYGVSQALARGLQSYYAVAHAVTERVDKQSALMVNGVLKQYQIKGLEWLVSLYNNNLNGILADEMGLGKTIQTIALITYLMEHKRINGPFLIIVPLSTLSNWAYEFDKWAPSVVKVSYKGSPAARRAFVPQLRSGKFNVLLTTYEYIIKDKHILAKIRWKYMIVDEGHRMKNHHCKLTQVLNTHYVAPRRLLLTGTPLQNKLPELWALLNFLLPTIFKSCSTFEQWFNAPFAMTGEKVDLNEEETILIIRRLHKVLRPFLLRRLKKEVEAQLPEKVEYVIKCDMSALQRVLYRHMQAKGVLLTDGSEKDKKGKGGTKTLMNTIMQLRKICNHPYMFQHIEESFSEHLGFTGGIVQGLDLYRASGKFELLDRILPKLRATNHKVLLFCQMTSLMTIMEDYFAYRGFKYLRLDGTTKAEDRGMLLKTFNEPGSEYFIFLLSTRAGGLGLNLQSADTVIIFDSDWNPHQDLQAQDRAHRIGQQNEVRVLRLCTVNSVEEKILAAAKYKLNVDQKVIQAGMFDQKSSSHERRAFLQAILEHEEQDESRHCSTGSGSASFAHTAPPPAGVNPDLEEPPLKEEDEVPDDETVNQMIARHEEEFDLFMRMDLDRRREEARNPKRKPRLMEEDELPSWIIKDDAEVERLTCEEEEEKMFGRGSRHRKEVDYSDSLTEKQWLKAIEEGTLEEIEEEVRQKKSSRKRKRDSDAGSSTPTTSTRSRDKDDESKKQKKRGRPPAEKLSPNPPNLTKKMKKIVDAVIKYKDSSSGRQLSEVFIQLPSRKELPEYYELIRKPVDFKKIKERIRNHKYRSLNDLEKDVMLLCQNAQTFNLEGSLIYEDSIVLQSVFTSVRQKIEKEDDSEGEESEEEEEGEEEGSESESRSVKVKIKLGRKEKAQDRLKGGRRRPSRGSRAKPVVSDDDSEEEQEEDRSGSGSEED
# Method in brief: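 Engineered HT1080 knock-in cells, 2000 cells/well, 6 hrs compound exposure, 37° C/5% CO2, 0.1% DMSO final. Lytic detection: LgBiT 1:100 plus HiBiT substrate 1:50 in lytic buffer, 10 min shake at RT, luminescence read.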
# SMARCA2 = SMARCA2 (Homo sapiens, UniProt P51531); test: HiBit assay in engineered HT1080 CRISPR knock-in cell, 6 hrs (B series), SMARCA2; assay type: cell-based; settings: 6 hrs incubation; for DC50: HT1080 CRISPR knock-in cells, read-out: SMARC A2 HT1080 HiBit DC50; for Dmax: HT-1080, HT1080 CRISPR knock-in cells, read-out: SMARC A2 HT1080 HiBit Dmax (%)
# Chain of SMARCA2 (P51531 whole entry): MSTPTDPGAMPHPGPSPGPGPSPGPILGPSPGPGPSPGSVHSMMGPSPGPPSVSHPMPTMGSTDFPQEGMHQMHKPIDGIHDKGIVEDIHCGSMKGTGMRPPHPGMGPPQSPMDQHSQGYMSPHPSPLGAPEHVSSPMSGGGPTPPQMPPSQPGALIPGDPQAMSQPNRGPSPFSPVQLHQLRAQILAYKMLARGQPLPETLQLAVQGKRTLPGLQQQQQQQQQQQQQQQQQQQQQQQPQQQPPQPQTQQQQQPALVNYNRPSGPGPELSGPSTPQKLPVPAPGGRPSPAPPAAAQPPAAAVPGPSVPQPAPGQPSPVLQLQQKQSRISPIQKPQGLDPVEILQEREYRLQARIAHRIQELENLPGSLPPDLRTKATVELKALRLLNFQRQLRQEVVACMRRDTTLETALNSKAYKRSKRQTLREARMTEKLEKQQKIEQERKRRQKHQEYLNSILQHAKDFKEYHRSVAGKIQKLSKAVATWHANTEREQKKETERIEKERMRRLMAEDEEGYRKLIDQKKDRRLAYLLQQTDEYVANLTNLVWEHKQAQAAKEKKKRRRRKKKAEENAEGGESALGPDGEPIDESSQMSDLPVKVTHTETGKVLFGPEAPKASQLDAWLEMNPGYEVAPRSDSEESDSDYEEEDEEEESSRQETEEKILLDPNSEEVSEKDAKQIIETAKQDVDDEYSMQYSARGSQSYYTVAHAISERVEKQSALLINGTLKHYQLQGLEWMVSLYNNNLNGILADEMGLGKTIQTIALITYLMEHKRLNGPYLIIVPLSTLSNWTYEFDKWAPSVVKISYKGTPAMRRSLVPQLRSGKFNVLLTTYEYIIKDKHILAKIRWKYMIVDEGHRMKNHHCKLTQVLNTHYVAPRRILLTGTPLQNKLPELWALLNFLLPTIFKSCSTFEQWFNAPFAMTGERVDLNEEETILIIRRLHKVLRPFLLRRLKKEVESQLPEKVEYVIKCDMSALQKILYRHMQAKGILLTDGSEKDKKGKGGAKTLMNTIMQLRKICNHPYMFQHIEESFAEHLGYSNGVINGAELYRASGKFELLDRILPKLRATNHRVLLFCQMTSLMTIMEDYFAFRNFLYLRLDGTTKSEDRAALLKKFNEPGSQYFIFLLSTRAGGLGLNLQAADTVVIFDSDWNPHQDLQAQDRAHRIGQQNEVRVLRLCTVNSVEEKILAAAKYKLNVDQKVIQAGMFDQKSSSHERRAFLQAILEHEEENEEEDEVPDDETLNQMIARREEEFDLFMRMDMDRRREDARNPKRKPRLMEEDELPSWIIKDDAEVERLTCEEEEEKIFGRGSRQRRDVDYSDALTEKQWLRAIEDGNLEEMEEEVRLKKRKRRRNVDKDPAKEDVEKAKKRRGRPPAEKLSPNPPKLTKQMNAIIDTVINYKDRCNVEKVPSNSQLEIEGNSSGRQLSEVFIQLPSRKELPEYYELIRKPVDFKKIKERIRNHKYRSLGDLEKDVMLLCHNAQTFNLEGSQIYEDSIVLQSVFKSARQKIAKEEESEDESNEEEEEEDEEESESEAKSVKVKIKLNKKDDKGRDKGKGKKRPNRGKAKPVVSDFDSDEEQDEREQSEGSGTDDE
# Method in brief: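 HT1080 CRISPR knock-in cells carrying the HiBiT tag were seeded onto compounds (final DMSO 0.1%) and incubated 6 hrs at 37° C, 5% CO2. Remaining tagged protein was detected by lytic HiBiT luminescence after adding LgBiT protein and substrate, with LgBiT-free wells serving as negative control.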
Compound,DC50 (SMARCA4) [nM],Dmax (SMARCA4) [%],DC50 (SMARCA2) [nM],Dmax (SMARCA2) [%]
"C[C@H](NC(=O)[C@@H]1C[C@@H](O)CN1C(=O)[C@@H](n1cc([C@H]2CC[C@H](CN3CCC(c4ccc5c(c4)-n4c(nc(=O)c6c(Cl)cccc64)C5(C)C)CC3)CC2)nn1)C(C)(C)C)c1ccc(-c2scnc2C#CCN2CCOCC2)cc1 [Compound B156, (2S,4R)-1-((R)-2-(4-((1r,4R)-4-((4-(4-chloro-7,7-dimethyl-5-oxo-5,7-dihydroindolo[1,2-a]quinazolin-10-yl)piperidin-1-yl)methyl)cyclohexyl)-1H-1,2,3-triazol-1-yl)-3,3-dimethylbutanoyl)-4-hydroxy-N-((S)-1-(4-(4-(3-morpholinoprop-1-yn-1-yl)thiazol-5-yl)phenyl)ethyl)pyrrolidine-2-carboxamide]",< 100,50 to 69,< 100,> 90
"Cc1ncsc1-c1ccc(CNC(=O)[C@@H]2C[C@@H](O)CN2C(=O)[C@@H](NC(=O)C2(F)CC2)C(C)(C)C)c(OCC2CCC(N3CCC(c4ccc5c(c4)-n4c(nc(=O)c6c(Cl)cccc64)C5(C)C)CC3)CC2)c1 (stereo partly drawn) [Compound B80, (2S,4R)-N-(2-((4-(4-(4-chloro-7,7-dimethyl-5-oxo-5,7-dihydroindolo[1,2-a]quinazolin-10-yl)piperidin-1-yl)cyclohexyl)methoxy)-4-(4-methylthiazol-5-yl)benzyl)-1-((S)-2-(1-fluorocyclopropane-1-carboxamido)-3,3-dimethylbutanoyl)-4-hydroxypyrrolidine-2-carboxamide]",< 100,> 90,< 100,> 90
"Cc1ncsc1-c1ccc(C(CN2CCOCC2)NC(=O)[C@@H]2C[C@@H](O)CN2C(=O)[C@H](c2cc(N3CCC(CN4CCN(c5ccc6c(c5)-n5c(nc(=O)c7c(Cl)cccc75)C65CCCCC5)CC4)CC3)no2)C(C)C)cc1 (stereo in doubt) [Compound B160, (2S,4R)-1-((S)-2-(3-(4-((4-(4′-chloro-5′-oxo-5′H-spiro[cyclohexane-1,7′-indolo[1,2-a]quinazolin]-10′-yl)piperazin-1-yl)methyl)piperidin-1-yl)isoxazol-5-yl)-3-methylbutanoyl)-4-hydroxy-N-((S)-1-(4-(4-methylthiazol-5-yl)phenyl)-2-morpholinoethyl)pyrrolidine-2-carboxamide]",< 100,50 to 69,< 100,> 90
Cc1ncsc1-c1ccc([C@H](C)NC(=O)[C@@H]2C[C@@H](O)CN2C(=O)[C@@H](n2cc(C34CC(C(=O)N5CCC(c6ccc7c(c6)-n6c(nc(=O)c8c(Cl)cccc86)C76CCCCC6)CC5)(C3)C4)nn2)C(C)(C)C)cc1 [Compound B169],< 100,50 to 69,< 100,70 to 90
"C[C@H](NC(=O)[C@@H]1C[C@@H](O)CN1C(=O)[C@@H](n1cc([C@H]2CC[C@H](CN3CCN(c4ccc5c(c4)-n4c(nc(=O)c6c(Cl)cccc64)C5(C)C)CC3)CC2)nn1)C(C)(C)C)c1ccc(-c2ccnn2C)cc1 [Compound B125, (2S,4R)-1-((S)-2-(4-((1r,4S)-4-((4-(4-chloro-7,7-dimethyl-5-oxo-5,7-dihydroindolo[1,2-a]quinazolin-10-yl)piperazin-1-yl)methyl)cyclohexyl)-1H-1,2,3-triazol-1-yl)-3,3-dimethylbutanoyl)-4-hydroxy-N-((S)-1-(4-(1-methyl-1H-pyrazol-5-yl)phenyl)ethyl)pyrrolidine-2-carboxamide]",< 100,70 to 90,< 100,> 90
